Counter-ions that a name gives are not always drawn.
Legend:
[1] = rabbit, in vivo
[2] = urinary excretion and organ distribution in mice with increasing doses of inactive carrier; settings: inactive carrier for labelled ruthenocenoylglycine
[3] = rat, in vivo; cited from earlier work
[4] = organ distribution of radioactivity in mouse; settings: approx. 0.5 umole/kg
[5] = renal clearance after administration to dogs (single injection method); format: in vivo, dog (beagle); settings: for clearance in words: dog; for clearance: intravenous
Experimental: The renal clearance by tubular excretion is a measure for the renal function was determined in two dogs, viz. beagles with body weights of 13.8 kg (dog a) and 14.8 kg (dog b) respectively by the generally recognized single injection method, in broad outline as described in Example VII. As radioactive materials were used iodine-131 labelled o-iodohippuric acid sodium salt (I-131 Hippuran), indium-111 DTPA (diethylene triamine pentaacetic acid) and ruthenium-97 labelled ruthenocenoylglycine. Indium-111DTP is also recommended to be used in radiodiagnostic compositions for examination of the renal glomerular filtration function. The time intervals between the various administrations were chosen in such a way, that no interference between the radioactive materials could occur. The radioactive materials were administered intraveneously, blood samples were collected 5, 10, 15, 30, 60 and 90 minutes after administration. The emitted radioactivity was determined with a gamma camera. The decreasing radioactivity of the successive blood samples is a measure for the elimination of the radioactive compound from the blood.

In the case of `O=C(O)CNC(=O)[c-]1cccc1.[Ru+2].c1cc[cH-]c1` [Rc glycine, ruthenocenoylglycine, labelled with ruthenium-103], the “accumulation in the kidneys and excretion” value [1] is reported as “very rapid accumulation in the kidneys followed by a rapid excretion”, the “renal clearance (general statement)” value [1] is reported as “even faster than that of iodohippuric acid sodium salt labelled with iodine-125” and the “renal clearance compared with iodine-125 labelled o-iodohippuric acid sodium salt” value [1] is reported as “cleared more rapidly than iodine-125 labelled o-iodohippuric acid sodium salt”.
In the case of `O=C(O)CNC(=O)c1ccccc1I` [ortho-iodohippuric acid (salt), ortho-iodohippuric acid], the “results when used as inactive carrier instead of ruthenocenoyl- or ferrocenoylglycine” value [2] is reported as “Comparable results”.
In the case of `O=C(O)CNC(=O)[c-]1cccc1.O=C(O)CNC(=O)[c-]1cccc1.[Ru+2]` [ruthenocenoyl-1,1'-diglycine], the “accumulation in the kidneys and excretion” value [1] is reported as “very rapid accumulation in the kidneys followed by a rapid excretion”.
For `[Ru+2].c1cc[cH-]c1.c1cc[cH-]c1` [ruthenium-103 labelled ruthenocene, ruthenocene], the “accumulation of radioactivity in lung and liver relative to kidney” value [3] is listed as “at least equal amounts as in the kidney”.
For `NC(=O)[c-]1cccc1.[Ru+2].c1cc[cH-]c1` [ruthenocene monocarboxylic acid amide], the “accumulation of radioactivity in lung and liver relative to kidney” value [3] is given as “at least equal amounts as in the kidney”.
With `Nc1ccc(C(=O)NCC(=O)O)cc1` [para-aminohippuric acid (salt), para-aminohippuric acid] the “results when used as inactive carrier instead of ruthenocenoyl- or ferrocenoylglycine” value [2] was “Comparable results”.
For `CCOC(=O)CNC(=O)[c-]1cccc1.[Ru+2].c1cc[cH-]c1` [Rc glycine ester, ruthenocenoyl ethylglycinate, labelled with ruthenium-103], the 103Ru conc. kidney ([4]; after 1 hour) was 141 dose/% body/wt, the 103Ru conc. kidney ([4]; after 3 hours) was 90 dose/% body/wt and the 103Ru conc. kidney ([4]; after 6 hours) was 125 dose/% body/wt. It also gave a 103Ru conc. liver ([4]; after 1 hour) of 43 dose/% body/wt, a 103Ru conc. liver ([4]; after 3 hours) of 24 dose/% body/wt and a 103Ru conc. liver ([4]; after 6 hours) of 3.5 dose/% body/wt. For the same compound, the 103Ru conc. lung ([4]; after 1 hour) was 6 dose/% body/wt, the 103Ru conc. lung ([4]; after 3 hours) was 2.6 dose/% body/wt and the 103Ru conc. lung ([4]; after 6 hours) was 3.0 dose/% body/wt.
For `O=C(O)CNC(=O)[c-]1cccc1.[Ru+2].c1cc[cH-]c1` [Ru-97 ruthenocenoylglycine, ruthenium-97 labelled ruthenocenoylglycine], the clearance in words ([5]; in vivo) was “faster than that of labelled o-iodohippuric acid salt”.
In the case of “indium-111 DTPA (diethylene triamine pentaacetic acid) [In - 111 DTPA]”, the clearance ([5]; dog a, beagle 13.8 kg) is reported as 79.6 mL/min, the clearance ([5]; dog b, beagle 14.8 kg) is reported as 62.2 mL/min and the clearance in words ([5]; comparison of the three radioactive compounds) is reported as “comparatively slow”.
